Results on 28 compounds are retold here after patent US20080004253A1, “Thiazolopyrimidine modulators of TRPV1” (priority 2006, published 2008).

In assay [1] the target is T1, human TRPV1 (Homo sapiens, UniProt Q8NER1).
T1 construct: expressed in transfected cells; host or cells: HEK293 (hTRPV1/HEK293), zeocin selection
In words: Functional assay: block of capsaicin-induced Ca2+ influx, human assay (hTRPV1/HEK293, FLIPR). Format: cell-based. The settings on record: hTRPV1/HEK293 cells, 150 nM capsaicin challenge, Fluo-3 fluorescence; mean; > value = solubility limit in assay medium. Put shortly: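 HEK293 cells stably expressing human TRPV1, fluo3-loaded, preincubated 30 min with compound (serial 3-fold dilutions from 10 μM, duplicate) in 20 μM Ca2+ buffer. Capsaicin response taken as fluo3 fluorescence change before vs 100 s after agonist; IC50 by non-linear regression, mean values; free base or TFA salt.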

Assay [2] concerns the target T2, rat TRPV1 (Rattus norvegicus, UniProt O35433).
T2 construct: expressed in transfected cells; host or cells: HEK293 (rTRPV1/HEK293), geneticin selection
In words: Functional assay: block of capsaicin-induced Ca2+ influx, rat assay (rTRPV1/HEK293, FLIPR). The note with it: rTRPV1/HEK293 cells, capsaicin challenge, Fluo-3 fluorescence; mean; > value = solubility limit in assay medium. Format: cell-based. Put shortly:
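Compounds, as free base or TFA salt, tested from 10 μM in three-fold steps on rTRPV1-transfected HEK293 cells, with 30 min preincubation in low-calcium (20 μM) buffer. Capsaicin-evoked Ca2+ influx measured by FLIPR fluo3 signal before and 100 s after addition. Averaged IC50 from non-linear fits.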

The structures appear in SMILES notation.

T1 sequence (Q8NER1 whole entry): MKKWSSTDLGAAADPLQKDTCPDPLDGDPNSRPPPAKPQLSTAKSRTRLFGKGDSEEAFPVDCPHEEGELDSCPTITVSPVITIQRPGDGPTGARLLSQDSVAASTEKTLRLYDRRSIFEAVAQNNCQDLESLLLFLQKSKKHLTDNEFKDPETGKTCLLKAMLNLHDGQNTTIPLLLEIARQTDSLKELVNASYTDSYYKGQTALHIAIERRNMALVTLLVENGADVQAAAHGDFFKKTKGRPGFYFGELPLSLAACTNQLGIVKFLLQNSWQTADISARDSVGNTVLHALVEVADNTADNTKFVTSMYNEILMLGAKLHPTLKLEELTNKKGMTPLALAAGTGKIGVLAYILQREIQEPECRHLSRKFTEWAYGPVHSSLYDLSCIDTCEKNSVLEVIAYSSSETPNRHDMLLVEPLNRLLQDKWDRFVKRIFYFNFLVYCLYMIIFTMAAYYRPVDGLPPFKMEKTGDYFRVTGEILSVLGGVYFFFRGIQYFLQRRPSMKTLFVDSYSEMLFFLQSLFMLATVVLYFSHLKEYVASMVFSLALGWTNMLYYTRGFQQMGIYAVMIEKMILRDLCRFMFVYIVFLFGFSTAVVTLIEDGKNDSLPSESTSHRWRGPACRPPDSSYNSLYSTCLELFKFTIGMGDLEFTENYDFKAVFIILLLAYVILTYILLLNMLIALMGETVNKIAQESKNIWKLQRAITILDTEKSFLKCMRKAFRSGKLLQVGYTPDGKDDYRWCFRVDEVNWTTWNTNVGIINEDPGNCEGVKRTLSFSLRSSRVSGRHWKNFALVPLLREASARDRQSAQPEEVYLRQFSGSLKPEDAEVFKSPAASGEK
T2 sequence (O35433 whole entry): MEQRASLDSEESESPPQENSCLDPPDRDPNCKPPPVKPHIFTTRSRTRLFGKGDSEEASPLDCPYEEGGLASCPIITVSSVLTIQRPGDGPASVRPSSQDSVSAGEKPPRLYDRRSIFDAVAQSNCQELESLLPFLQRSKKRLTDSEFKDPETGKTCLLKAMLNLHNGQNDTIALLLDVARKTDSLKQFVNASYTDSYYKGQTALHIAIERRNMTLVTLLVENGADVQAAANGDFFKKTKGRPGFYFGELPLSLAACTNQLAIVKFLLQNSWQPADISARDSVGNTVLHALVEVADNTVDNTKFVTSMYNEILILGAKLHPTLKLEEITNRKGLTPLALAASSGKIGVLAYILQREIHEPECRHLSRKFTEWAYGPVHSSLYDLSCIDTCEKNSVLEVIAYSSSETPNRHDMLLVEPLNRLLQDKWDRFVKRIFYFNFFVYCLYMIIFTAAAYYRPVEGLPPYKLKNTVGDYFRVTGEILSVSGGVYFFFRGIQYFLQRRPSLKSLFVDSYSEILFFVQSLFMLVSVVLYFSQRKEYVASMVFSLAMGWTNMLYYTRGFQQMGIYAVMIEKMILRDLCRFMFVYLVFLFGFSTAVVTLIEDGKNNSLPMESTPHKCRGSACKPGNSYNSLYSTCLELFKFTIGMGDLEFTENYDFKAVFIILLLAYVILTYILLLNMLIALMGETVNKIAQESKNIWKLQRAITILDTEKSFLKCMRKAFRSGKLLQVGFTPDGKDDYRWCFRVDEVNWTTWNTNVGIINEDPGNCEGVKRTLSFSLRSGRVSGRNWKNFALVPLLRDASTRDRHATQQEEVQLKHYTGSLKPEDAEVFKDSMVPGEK

One may read the IC50 as the concentration that inhibits the measured activity by half. High values mean lower potency, low ones higher potency. As for `FC(F)(F)c1ccc(Nc2nc(N3CCCC3)nc3sc(Nc4c(Cl)cccc4Cl)nc23)cc1` [Example 58, N^2-(2,6-Dichloro-phenyl)-5-pyrrolidin-1-yl-N^7-(4-trifluoromethyl-phenyl)-thiazolo[5,4-d]pyrimidine-2,7-diamine], the figures for the IC50 in assay [1] and in assay [2] were 15 nM and 48 nM, respectively.

Regarding `O=S(=O)(c1ccc(Nc2ncnc3sc(Nc4c(Cl)cccc4Cl)nc23)cc1)N1CCOCC1` [Example 80, N^2-(2,6-Dichloro-phenyl)-N^7-[4-(morpholine-4-sulfonyl)-phenyl]-thiazolo[5,4-d]pyrimidine-2,7-diamine], the IC50 came to 2 nM in assay [1] and 1 nM in assay [2].

Consider `FC(F)(F)c1ccc(Nc2nc(NCCCN3CCOCC3)nc3sc(Nc4c(Cl)cccc4Cl)nc23)cc1` [Example 100, N^2-(2,6-Dichloro-phenyl)-N^5-(3-morpholin-4-yl-propyl)-N^7-(4-trifluoromethyl-phenyl)-thiazolo[5,4-d]pyrimidine-2,5,7-triamine], for which the IC50 in assay [1] amounted to 17 nM; in assay [2], 6 nM.

`CN(C)CCN(C)c1nc(Nc2ccc(C(F)(F)F)cc2)c2nc(Nc3c(Cl)cccc3Cl)sc2n1` [Example 182, N^2-(2,6-Dichloro-phenyl)-N^5-(2-dimethhylamino-ethyl)-methyl-N^7-(4-trifluoromethyl-phenyl)-thiazolo[5,4-d]pyrimidine-2,5,7-triamine]: the IC50 came to 1320 nM in assay [1] and 1820 nM in assay [2].

`COC(=O)C(C)(C)c1ccc(Nc2ncnc3sc(Nc4c(Cl)cccc4Cl)nc23)cc1` [Example 229, Methyl 2-[4-({2-[(2,6-dichlorophenyl)amino][1,3]thiazolo[5,4-d]pyrimidin-7-yl}amino)phenyl]-2-methylpropanoate]: the IC50 in assay [1] came out at 139 nM; in assay [2] it was 71 nM.

Turning to `Cc1cccc(C)c1Nc1nc2c(Nc3ccc(NS(C)(=O)=O)cc3)ncnc2s1` [Example 175, N-{4-[2-(2,6-Dimethyl-phenylamino)-thiazolo[5,4-d]pyrimidin-7-ylamino]-phenyl}-methanesulfonamide], the IC50 in assay [1] and in assay [2] was > 20000 nM throughout.

Regarding `Cc1ccc(CNc2ncnc3sc(Nc4c(C)cccc4C)nc23)o1` [Example 47, N^2-(2,6-Dimethyl-phenyl)-N^7-(5-methyl-furan-2-ylmethyl)-thiazolo[5,4-d]pyrimidine-2,7-diamine], the IC50 in assay [1] and in assay [2] was > 6670 nM each time.

Consider `FC(F)(F)c1ccc(Nc2ncnc3sc(NC4CCCCC4)nc23)cn1` [Example 233, N^2-Cyclohexyl-N^7-[6-(trifluoromethyl)pyridin-3-yl][1,3]thiazolo[5,4-d]pyrimidine-2,7-diamine], for which the values for the IC50 in assay [1] and in assay [2] were 7070 nM and 7720 nM, respectively.

As to `COc1ccc(Nc2ncnc3sc(Nc4c(C)cccc4C)nc23)cc1C(F)(F)F` [Example 168, N^2-(2,6-Dimethyl-phenyl)-N^7-(4-methoxy-3-trifluoromethyl-phenyl)-thiazolo[5,4-d]pyrimidine-2,7-diamine], the IC50 in assay [1] and in assay [2] was > 6670 nM throughout.

In the case of `FC(F)(F)c1ccc(Nc2nc(N3CCC3)nc3sc(Nc4c(Cl)cccc4Cl)nc23)cc1` [Example 59, 5-Azetidin-1-yl-N^2-(2,6-dichloro-phenyl)-N^7-(4-trifluoromethyl-phenyl)-thiazolo[5,4-d]pyrimidine-2,7-diamine], the results for the IC50 in assay [1] and in assay [2] were 63 nM and 22 nM, respectively.

With `Cc1ccc(Nc2ncnc3sc(Nc4c(C)cccc4C)nc23)c(O)c1` [Example 158, 2-[2-(2,6-Dimethyl-phenylamino)-thiazolo[5,4-d]pyrimidin-7-ylamino]-5-methyl-phenol], the IC50 in assay [1] is 1970 nM; in assay [2], 313 nM.

Regarding `CS(=O)(=O)c1ccc(Nc2ncnc3sc(Nc4c(Cl)cc(C(N)=O)cc4Cl)nc23)cc1` [Example 237, 3,5-Dichloro-4-[7-(4-methanesulfonyl-phenylamino)-thiazolo[5,4-d]pyrimidin-2-ylamino]-benzamide], the IC50 in assay [1] is 840 nM; in assay [2], 189 nM.

`FC(F)(F)c1ccc(Nc2nc(N3CCCCC3)nc3sc(Nc4c(Cl)cccc4Cl)nc23)cc1` [Example 54, N^2-(2,6-Dichloro-phenyl)-5-piperidin-1-yl-N^7-(4-trifluoromethyl-phenyl)-thiazolo[5,4-d]pyrimidine-2,7-diamine]: the IC50 in assay [1] worked out at 63 nM; in assay [2] it was 33 nM.

Turning to `Cc1cccc(C)c1Nc1nc2c(Nc3ccc(Cl)c(Cl)c3)ncnc2s1` [Example 34, N^7-(3,4-Dichloro-phenyl)-N^2-(2,6-dimethyl-phenyl)-thiazolo[5,4-d]pyrimidine-2,7-diamine], the IC50 in assay [1] and in assay [2] was > 6670 nM in each case.

In the case of `Cc1cccc(C)c1Nc1nc2c(Nc3ccc(S(=O)(=O)N4CCNCC4)cc3)ncnc2s1` [Example 151, N^2-(2,6-Dimethyl-phenyl)-N^7-[4-(Piperazine-1-sulfonyl)-phenyl]-thiazolo[5,4-d]pyrimidine-2,7-diamine], the IC50 in assay [1] was found to be 1220 nM; in assay [2] it was 349 nM.

Turning to `COC(=O)c1ccc(Nc2ncnc3sc(Nc4c(C)cccc4C)nc23)cc1` [Example 37, 4-[2-(2,6-Dimethyl-phenylamino)-thiazolo[5,4-d]pyrimidin-7-ylamino]-benzoic acid methyl ester], the results for the IC50 in assay [1] and in assay [2] were 134 nM and 38 nM, respectively.

Turning to `CN(C)c1nc(Nc2ccc(C(F)(F)F)cc2)c2nc(Nc3c(Cl)cccc3Cl)sc2n1` [Example 56, N^2-(2,6-Dichloro-phenyl)-N^5,N^5-dimethyl-N^7-(4-trifluoromethyl-phenyl)-thiazolo[5,4-d]pyrimidine-2,5,7-triamine], the IC50 in assay [1] amounted to 32 nM; in assay [2], 44 nM.

In the case of `Cc1ccccc1Nc1nc2c(Nc3ccc(S(C)(=O)=O)cc3)ncnc2s1` [Example 116, N^7-(4-Methanesulfonyl-phenyl)-N^2-o-tolyl-thiazolo[5,4-d]pyrimidine-2,7-diamine], the IC50 in assay [1] was 45 nM; in assay [2], 11 nM.

As to `Cc1noc(C)c1Nc1nc2c(Nc3ccc(C(F)(F)F)nc3)ncnc2s1` [Example 24, N^2-(3,5-Dimethyl-isoxazol-4-yl)-N^7-(6-trifluoromethyl-pyridin-3-yl)-thiazolo[5,4-d]pyrimidine-2,7-diamine], the IC50 came out at 2360 nM in assay [1] and 709 nM in assay [2].

On to `O=S(=O)(c1ccc(Nc2ncnc3sc(Nc4ccccc4Cl)nc23)cc1)C(F)(F)F` [Example 203, N^2-(2-Chloro-phenyl)-N^7-(4-trifluoromethanesulfonyl-phenyl)-thiazolo[5,4-d]pyrimidine-2,7-diamine], for which the IC50 was 48 nM in assay [1] and 76 nM in assay [2].

As to `FC(F)(F)c1ccc(Nc2ncnc3sc(Nc4ccccc4C(F)(F)F)nc23)cn1` [Example 219, N^2-[2-(Trifluoromethyl)phenyl]-N^7-[6-(trifluoromethyl)pyridin-3-yl][1,3]thiazolo[5,4-d]pyrimidine-2,7-diamine], the figures for the IC50 in assay [1] and in assay [2] were 104 nM and 76 nM, respectively.

In the case of `FC(F)(F)c1ccc(Nc2ncnc3sc(Nc4c(Cl)cccc4C(F)(F)F)nc23)cc1` [Example 18, N^2-(2-Chloro-6-trifluoromethyl-phenyl)-N^7-(4-trifluoromethyl-phenyl)-thiazolo[5,4-d]pyrimidine-2,7-diamine], the IC50 was 30 nM in assay [1] and 9 nM in assay [2].

For `Cc1cccc(C)c1Nc1nc2c(Nc3ccc(Cl)nc3)ncnc2s1` [Example 119, N^7-(6-Chloro-pyridin-3-yl)-N^2-(2,6-dimethyl-phenyl)-thiazolo[5,4-d]pyrimidine-2,7-diamine], the IC50 in assay [1] was found to be 56 nM; in assay [2], 51 nM.

Consider `CS(=O)(=O)c1ccc(Nc2nc(N3CCCCC3)nc3sc(Nc4c(Cl)cccc4Cl)nc23)cc1` [Example 129, N^2-(2,6-Dichloro-phenyl)-N^7-(4-methanesulfonyl-phenyl)-5-piperidin-1-yl-thiazolo[5,4-d]pyrimidine-2,7-diamine], for which the IC50 turned out to be 149 nM in assay [1] and 23 nM in assay [2].

Turning to `CS(=O)(=O)c1ccc(Nc2nc(NCC3CC3)nc3sc(Nc4c(Cl)cccc4Cl)nc23)cc1` [Example 184, N^5-Cyclopropylmethyl-N^2-(2,6-dichloro-phenyl)-N^7-(4-methanesulfonyl-phenyl)-thiazolo[5,4-d]pyrimidine-2,5,7-triamine], the figures for the IC50 in assay [1] and in assay [2] were 8 nM and 5 nM, respectively.

With `Cc1cccc(C)c1Nc1nc2c(Nc3ccc(C(F)(F)F)cc3)ncnc2s1` [Example 10, N^2-(2,6-Dimethyl-phenyl)-N^7-(4-trifluoromethyl-phenyl)thiazolo[5,4,d]pyrimidine-2,7-diamine], the IC50 in assay [1] was 26 nM; in assay [2] it was 6 nM.

As to `FC(F)(F)c1ccc(Nc2nc(NCCN3CCCCC3)nc3sc(Nc4c(Cl)cccc4Cl)nc23)cc1` [Example 180, N^2-(2,6-Dichloro-phenyl)-N^5-(2-piperidin-1-yl-ethyl)-N^7-(4-trifluoromethyl-phenyl)-thiazolo[5,4-d]pyrimidine-2,5,7-triamine], the IC50 in assay [1] came to 123 nM; in assay [2], 32 nM.

For `CN[C@@H]1CCN(c2nc(Nc3ccc(C(F)(F)F)cc3)c3nc(Nc4c(Cl)cccc4Cl)sc3n2)C1` [Example 183, (3R)-N^2-(2,6-Dichloro-phenyl)-5-(3-methylamino-pyrrolidin-1-yl)-N^7-(4-trifluoromethyl-phenyl)-thiazolo[5,4-d]pyrimidine-2,7-diamine], the IC50 is 13600 nM in assay [1] and > 20000 nM in assay [2].
